Consider 2 compounds from patent publication US5216011A (priority 1989, dated 1993).

On series [1], the source says: The effect of pretreatment of propylene glycol with sodium bicarbonate and carbon (Darco G-60) was investigated.
The nature of series [2]: Pseudo first-order rate constants for degradation of mitomycin C in neat propylene glycol. The format is physicochemical. How it is done:
^a Data were taken from Table VI. m:month.
^b Predicted from 40° C. data.

Series [3] in a line: Stability of mitomycin C (5 mg/mL) in polyethylene glycols. The format is physicochemical.
A short description of series [4]: Predicted stability of mitomycin C at different temperatures (aqueous degradation kinetics).
For series [5] the following is noted: cited from earlier work; for stable for: 20-40 mcg/mL, room temperature; for degradation product: aqueous.
Series [6] in a line: Solution stability of mitomycin C in non-aqueous solvents (Table V). The format is physicochemical. The source says: ^a All solutions on test in amber vials and nitrogen purged.
^b The pH of these vehicles was adjusted to 7.0 with citric acid.
^c Dried over molecular sieve.

The conditions of series [7]: neutral pH, unbuffered solution, Ref. 6; cited from earlier work.
Series [8] in a line: Apparent pH of propylene glycol before and after sodium bicarbonate treatment. The format is physicochemical. Particulars: after 1:10 dilution with water. The protocol: Into a 50 mL Erlenmeyer flask containing 25 mL of neat propylene glycol was added 25 mg sodium bicarbonate. The mixture was stirred for 10 minutes. After standing for 30 minutes, the mixture was then filtered through a Millex-SR filter (Millipore Corp., P/N#SLSR025NS) to remove undissolved sodium bicarbonate. Apparent pH of propylene glycol before and after the treatment (after 1:10 dilution with water) was measured and were 6.5 and 8.4, respectively.

Like-named read-outs stand apart in the source and are kept apart here.

As to `CO[C@@]12[C@H](COC(N)=O)C3=C(C(=O)C(C)=C(N)C3=O)N1C[C@@H]1N[C@@H]12` [mitomycin C], the “Effect of air vs. nitrogen on stability” value in series [1] (PG and PG/water, 25° C.) is reported as “more stable in the presence of nitrogen”. The Stability entry was “Excellent stability” in series [1] (all PG formulations, 25° C. and 4° C.); “poor stability” in series [1] (glycerin); “poor and variable stability” in series [3] (PEG 200, 300 and 400); “Slightly lower stability” in series [6] (2-pyrrolidone (2-Pyr)); “Excellent stability” in series [6] (DMA, NMP and PG); “surprisingly poor” in series [6] (ethanol). The “Effect of 5% and 10% water on stability” value in series [1] (propylene glycol) was “do not adversely affect, and may actually improve, mitomycin C stability”. For the same compound, the “Effect of pretreatment of propylene glycol with carbon (Darco G-60) on stability” value in series [1] (propylene glycol) was “did not significantly improve mitomycin C stability”. Further, the “Effect of pretreatment of propylene glycol with sodium bicarbonate on stability” value in series [1] (propylene glycol) is given as “significantly improved”. The “Effect of three antioxidants on stability” value in series [1] (propylene glycol, vs control solution) is on record as “do not significantly improve mitomycin C stability”. Besides, the “Arrhenius activation energy, Ea” value in series [2] (4-40° C.) was 16.5 kcal/mol. For the same compound, in series [2] (4° C.), the “time for which potency will remain greater than 90% of initial” value is listed as “more than 30 months”. Further, the t90 in series [2] (4 °C) is 38 months; in series [2] (25 °C) it was 3.9 months; in series [2] (40 °C) it was 37 days; in series [4] (5° C., predicted), 420 days; in series [4] (25° C.), 40 days. In addition, the “10^2 ko (pseudo first-order rate constant)” value is recorded as 0.276 m^-1 in series [2] (4 °C (277 K), m: month); 2.69 m^-1 in series [2] (25 °C (298 K), m: month); 8.40 m^-1 in series [2] (40 °C (313 K), m: month). In addition, the “t90 predicted from 40° C. data” value in series [2] (4 °C, m: month) is listed as 39 m. In addition, the “Effect of purging with nitrogen on stability” value in series [3] (PEG 400) is recorded as “improved stability”. Moreover, the “Effect of pH adjustment to 6.2 on stability” value in series [3] (PEG 400, sodium glycodeoxycholate) was “unsuccessful”. For the same compound, the “Effect of propyl gallate on stability” value in series [3] (PEG, nitrogen purged solutions) was “not to improve stability”. The t50 is recorded as 7.6 y in series [4] (5° C., predicted) and 0.7 y in series [4] (25° C.). Moreover, the decomposition rate constant in series [4] (5° C., predicted from E act) was 1.04e-05 h⁻¹; in series [4] (25° C., 0.05M phosphate buffer, pH 7.43), 0.00011 h⁻¹. For the same compound, the “predicted t90” value in series [4] (5° C., unbuffered aqueous solution) is “about one”. Moreover, the “time until potency falls to 90% of its original value” in series [4] (in water, 25° C.) is on record as 40 days. For the same compound, the “stable for” value was 12 h in series [5] (0.9% sodium chloride injection), 3 h in series [5] (5% dextrose injection) and 24 h in series [5] (sodium/lactate injection). For the same compound, the “pH of maximum stability” value in series [5] (aqueous solutions) is reported as 7-8. In addition, the degradation product entry in series [5] (pH above 7) was “hydrolyzed to 7-hydroxymitosane”; in series [5] (pH below 7) it was “converted to 1-hydroxy-2,7-diaminomitosanes”. The “time to loss of 10% potency” value in series [5] (in water at 25° C.) is listed as “about 40 days”. For the same compound, in series [6] (propylene glycol, vs neat solvent), the “Effect of addition of 2% water on stability” value was “appeared to increase stability”. Besides, in series [7], the “E act (activation energy for decomposition)” value was 19.4 kcal/mol.

In the case of `CC(O)CO` (stereo not drawn) [propylene glycol], the “Apparent pH after treatment” value in series [8] (after sodium bicarbonate treatment) was determined as 8.4. For the same compound, the “Apparent pH before treatment” value in series [8] (before sodium bicarbonate treatment) was 6.5.
